Test results from PMC3612465 (International Journal of Alzheimer's Disease, 2013).
Like-named read-outs stand apart in the source and are kept apart here.

Columns and labels:
[1] = test system: HES-1, mATH1, KLF4 gene expression; experiment: Notch pathway biomarker gene expression in jejunum (RT-PCR); format: in vivo, nontransgenic B6C3F1 mouse; settings: nontransgenic mice
Description: The jejunum was harvested, rinsed, and flash frozen in liquid nitrogen until later analyses. RNA was isolated from tissues using the Trizol reagent (Molecular Research Center, Inc.) followed by purification over an RNAeasy column (Qiagen).
RNA was purified over an RNAeasy column.

Aβ40 [2] = experiment: Subchronic (11 days q.d. or 6 days b.i.d.) Aβ lowering in nontransgenic mice; format: in vivo, nontransgenic B6C3F1 mouse
Aβ40, Aβ42 [3] = test system: Aβ40, Aβ42; design: species or system TgCRND8 mouse; settings: mouse, in vivo, po, 100 mg/kg
Aβ40, Aβ42 [4] = settings: TgCRND8, single oral 30 mg/kg, 8 hr after dose
Description: (§1) Plasma and cortex Aβ42 were quantified in select TgCRND8 studies using biotin-4G8 and S-tag G2-11 and 4G8 antibodies.

Aβ40 [5] = settings: rat, single oral dose 10-100 mg/kg, 3 hr
Aβ40 [6] = experiment: Acute Aβ lowering in nontransgenic B6C3F1 mice; format: in vivo, nontransgenic B6C3F1 mouse; settings: 3 hr
Aβ40, Aβ42 [7] = test system: Aβ40, Aβ42; design: species or system TgCRND8 mouse; settings: mouse, in vivo
Description: as §1

[8] = test system: Aβ; Notch-related toxicity; design: method as in PMID 21190552; settings: 7 days of b.i.d. dosing, cited from earlier work

Structure (SMILES)	mATH1 expression in the jejunum ([1]; 100 mg/kg 6 days b.i.d., P < 0.04)	HES-1 expression in the jejunum ([1]; 100 mg/kg, 11 days q.d. and 6 days b.i.d., P < 0.02)	KLF4 expression in the jejunum ([1]; 30 and 100 mg/kg 6 days b.i.d., P < 0.04)	mATH1 and KLF expression in the jejunum ([1]; 11 day q.d. groups)	dose giving 50% lowering of cortical Aβ (Aβ40 [2]; nontransgenic mice, 11 days q.d. and 6 days b.i.d.)	increase in Aβ in the cortex (Aβ40 [2]; nontransgenic mice, 11 days q.d. and 6 days b.i.d., 3-100 mg/kg)	continuous inhibition of Aβ with q.d. dosing (Aβ40 [2]; q.d. dosing (100 mg/kg), without Notch-related side effects) [%]	cortex Aβ40 reduction (Aβ40, Aβ42 [3]) [%]	cortex Aβ42 reduction (Aβ40, Aβ42 [3]) [%]	cortex Aβ40 lowering (Aβ40, Aβ42 [4]) [%]	cortex Aβ42 lowering (Aβ40, Aβ42 [4]) [%]	cortex Aβ40 reduction (plateau) (Aβ40 [5])	cortex Aβ lowering (Aβ40 [6]; single oral 100 mg/kg)	cortex Aβ lowering (Aβ40 [6]; single oral 10, 30 and 100 mg/kg, P < 0.005)	cortex Aβ40 reduction (Aβ40, Aβ42 [7]) [%]	cortex Aβ42 reduction (Aβ40, Aβ42 [7]) [%]	cortex Aβ reduction (Aβ40, Aβ42 [7]) [%]	reduction of Aβ at partial inhibition dose (Aβ40, Aβ42 [7])	lowering of Aβ ([8]; sustained but incomplete)	Notch-related toxicity (thymus weight, goblet cell hyperplasia in the ileum) [8]
O=C(OC1([C@H]2CCC[C@@H](c3cc(F)cc(F)c3)N2S(=O)(=O)c2ccc(Cl)cc2)CC1)N1CCN(CCO)CC1 (relative stereo) [SCH 697466, 1-[cis-1-[(4-chlorophenyl)sulfonyl]-6-(3,5-difluorophenyl)-2-piperidinyl]cyclopropyl 4-(2-hydroxyethyl)-1-piperazinecarboxylate]	increased expression	significant decreases	increased expression	unchanged	around 30 mg/kg	no evidence of an increase	> 80	55	47	82	42	about 60%	Near complete lowering	significant lowering	98	66	48	~ 50%		
O=S(=O)(c1ccc(Cl)cc1)N1[C@@H]2CCC[C@H]1c1cn[nH]c1C2 [ELN 475516]																			~ 74%	no evidence of Notch-related toxicity
